The text below walks through data of PubChem BioAssay (NCI).

Some test systems named below: HOP-18 NSCLC; DLD-1 colon; RXF-631 renal; KM20L2 colon; M19-MEL melanoma; DMS 273 small cell lung; LXFL 529 NSCLC; P388/ADR leukemia; XF 498 CNS; SN12K1 renal; P388 leukemia; MDA-N.
Holding throughout (assay): NCI tumour cell line growth inhibition, 48 h

“And” between values parts separate entries of the source, which are not always exact repeats. Identical values can stand only once.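 48-hour exposure; five concentrations; linearly interpolated endpoints. GI50 = concentration required for 50% inhibition of growth. TGI: total growth inhibition.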

Regarding `O=C(N/C(=C\c1ccc(/C=C(\NC(=O)c2ccccc2)c2nc3ccccc3s2)cc1)c1nc2ccccc2s1)c1ccccc1`, the TGI is 26 µM in the assay on HOP-18 NSCLC; 12 µM in the assay on DLD-1 colon; 20.6 µM in the assay on RXF-631 renal; 11.2 µM with KM20L2 colon; 15.2 µM in the assay with M19-MEL melanoma; 10.8 µM in the assay on DMS 273 small cell lung. The same molecule yielded a TGI in the assay on LXFL 529 NSCLC of 10.9 µM.
In the case of `CC1[C@@H]2CC=C3[C@H]4CCC5Cc6nc7c(nc6C[C@@]5(C)C4(O)CC(=O)[C@]32CO[C@]12OC(C)(C)CC2O)CC1CC[C@@H]2C3=C[C@H]4O[C@@]5(O[C@@](C)(CO)C[C@@H]5O)C(C)[C@@]4(O)[C@]3(C)[C@@H](O)CC2[C@]1(C)C7` (some centres not stated), the TGI in the assay on HOP-18 NSCLC was greater than 3.6 µM; with P388/ADR leukemia, 0.379 µM; in the assay on DLD-1 colon, 0.874 µM and > 3.6 µM; in the assay with XF 498 CNS, 0.256 µM; in the assay with KM20L2 colon it was 0.0704 µM and 0.0675 µM; in the assay on M19-MEL melanoma, greater than 3.6 µM. The TGI with SN12K1 renal was greater than 3.6 µM; in the assay with P388 leukemia, 0.00382 µM; in the assay on LXFL 529 NSCLC, 0.000387 µM. Moreover, the GI50 with DLD-1 colon was 0.0712 µM and 0.0866 µM; in the assay on KM20L2 colon, 0.000664 µM and 0.00202 µM; with M19-MEL melanoma it was 0.329 µM and 2.05 µM; in the assay with DMS 273 small cell lung, 0.00036 µM; in the assay on LXFL 529 NSCLC, 0.000139 µM.
On to `Cn1c(=O)c(C(=O)NC(=O)NCCCCCOC(=O)CCCCCCCCCCC(=O)OCCCCCNC(=O)NC(=O)c2cn(Cc3ccccc3)c(=O)n(C)c2=O)cn(Cc2ccccc2)c1=O`, for which the TGI with HOP-18 NSCLC, with DLD-1 colon, in the assay on XF 498 CNS, in the assay with KM20L2 colon, in the assay with M19-MEL melanoma and with DMS 273 small cell lung was greater than 100 µM in each case. The molecule further gave a TGI in the assay with LXFL 529 NSCLC greater than 100 µM.
Regarding `CC1(C(=O)O)CCOc2ccccc21` (configuration not stated), the TGI in the assay on HOP-18 NSCLC, in the assay on DLD-1 colon, in the assay on KM20L2 colon, with M19-MEL melanoma and in the assay on LXFL 529 NSCLC was greater than 100 µM throughout.
Take `O=C(Nc1nc2ccc([N+](=O)[O-])cc2s1)C(=O)C(C(=O)c1ccncc1)C1OC(=O)c2ccccc21` (configuration not stated): the TGI in the assay with HOP-18 NSCLC, in the assay with DLD-1 colon, in the assay with RXF-631 renal, in the assay with XF 498 CNS, in the assay on KM20L2 colon and in the assay on M19-MEL melanoma was greater than 100 µM each time. Further, the TGI in the assay with DMS 273 small cell lung and with LXFL 529 NSCLC was greater than 100 µM throughout.
Consider `Cc1cnccc1N=Nc1ccc(N(C)C)cc1`, for which, in the assay with MDA-N, the TGI was 69.3 µM.
With `CCn1c(=O)c2ccccc2n2c(=O)c3cc4ccccc4cc3nc12`, the TGI is greater than 100 µM in the assay with DLD-1 colon; 49 µM in the assay on XF 498 CNS; greater than 100 µM with KM20L2 colon; greater than 100 µM in the assay with M19-MEL melanoma; greater than 100 µM in the assay with DMS 273 small cell lung; greater than 100 µM in the assay on LXFL 529 NSCLC.
In the case of `C=C1C(=O)OC2/C=C(\CO)CC/C=C(\CO)CC(OC(=O)C(C)C)C12` (configuration not stated), in the assay with MDA-N, the TGI was determined as 17.9 µM.
In the assay on MDA-N, `CN(C)CCSCCO` showed a TGI greater than 100 µM.
On to `CN(CC(=O)O)Cc1oc(CO)cc(=O)c1O`, for which the TGI with MDA-N was greater than 100 µM.
`NCc1c(C(N)=O)ncn1Cc1ccccc1`: the TGI in the assay on HOP-18 NSCLC, with XF 498 CNS, in the assay on KM20L2 colon, in the assay with M19-MEL melanoma, in the assay on DMS 273 small cell lung and with LXFL 529 NSCLC was greater than 100 µM in each case.
Consider `Nc1cc(S(N)(=O)=O)ccc1SSc1ccc(S(N)(=O)=O)cc1N`, for which the TGI in the assay on MDA-N was greater than 100 µM.
`Cc1c(-c2nnc(-c3ccccc3)o2)c(=O)n(-c2ccccc2)n1C`: the TGI in the assay on HOP-18 NSCLC, with DLD-1 colon, in the assay with XF 498 CNS, in the assay on KM20L2 colon, with M19-MEL melanoma and with DMS 273 small cell lung was greater than 100 µM throughout. Besides, the TGI in the assay on LXFL 529 NSCLC was greater than 100 µM.
`CCOC(=O)N1C(c2ccccc2)C=CC(c2ccccc2)N1C(=O)OCC` (configuration not stated): the TGI in the assay on HOP-18 NSCLC, in the assay on DLD-1 colon, with XF 498 CNS, in the assay with KM20L2 colon and with M19-MEL melanoma was greater than 100 µM in each case.
Turning to `O=C1C(=O)N(c2nccs2)C(=O)C(=O)C1c1nc2ccccc2s1`, the TGI in the assay on HOP-18 NSCLC, with DLD-1 colon, in the assay on XF 498 CNS, in the assay on KM20L2 colon, with M19-MEL melanoma and in the assay with DMS 273 small cell lung was greater than 100 µM in each case. This molecule also displayed a TGI in the assay with LXFL 529 NSCLC greater than 100 µM.
In the case of `CC(C)CC12CC3CCC(CNC1=O)C32C` (configuration not stated), the TGI in the assay with HOP-18 NSCLC, in the assay on DLD-1 colon, in the assay with XF 498 CNS, with M19-MEL melanoma, in the assay on DMS 273 small cell lung and with LXFL 529 NSCLC was greater than 100 µM throughout.
Regarding `Cc1ccc(C2=C(c3ccc(C)cc3)C(c3ccc(C)cc3)=C(c3ccc(C)cc3)C2=O)cc1`, the TGI in the assay with HOP-18 NSCLC, with DLD-1 colon, in the assay with RXF-631 renal, with XF 498 CNS, with KM20L2 colon and with M19-MEL melanoma was greater than 100 µM throughout. Besides, the TGI in the assay on LXFL 529 NSCLC was greater than 100 µM.
Regarding `O=c1cccccc1[O-].O=c1cccccc1[O-].O=c1cccccc1[O-].[Ce+3]`, the GI50 in the assay with DLD-1 colon is 16.7 µM; with KM20L2 colon, 24.1 µM; in the assay on DMS 273 small cell lung, 11.4 µM. In addition, the TGI with DLD-1 colon, in the assay on KM20L2 colon and in the assay with DMS 273 small cell lung was greater than 100 µM each time.
For `CCCCn1c2ccccc2c2ccc3c(c21)C(=O)C=CC3=O`, the TGI is greater than 100 µM in the assay with HOP-18 NSCLC; greater than 100 µM in the assay with DLD-1 colon; greater than 100 µM in the assay with KM20L2 colon; 1.04 µM in the assay with M19-MEL melanoma; greater than 100 µM in the assay on DMS 273 small cell lung; greater than 100 µM in the assay on LXFL 529 NSCLC.
